What was measured:
Test in all cases: Test B pre-/postemergence plant response
Assay type in all cases: in vivo
Conditions in all cases: Postemergence
[1] = system: cocklebur (Xanthium strumarium)
Procedure, shortened: (§1)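 Visual injury, 0–100 scale (100 = complete control), rated against controls after 13 to 15 days in greenhouse. Pre-emergence: seeds in loam/sand soil, treated at planting. Post-emergence: 1- to 4-leaf plants (2 to 18 cm) in peat/vermiculite medium. Compounds formulated in non-phytotoxic solvent with surfactant.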

[2] = system: galium (catchweed bedstraw, Galium aparine)
Procedure, shortened: as §1

[3] = system: kochia (Kochia scoparia)
Procedure, shortened: as §1

[4] = system: lambsquarters (Chenopodium album)
Procedure, shortened: as §1

[5] = system: large crabgrass (Digitaria sanguinalis)
Procedure, shortened: as §1

[6] = system: wild oat (Avena fatua)
Procedure, shortened: as §1

[7] = system: woolly cupgrass (Eriochloa villosa)
Procedure, shortened: as §1

[8] = system: yellow nutsedge (Cyperus esculentus)
Procedure, shortened: as §1

[9] = system: Surinam grass (Brachiaria decumbens)
Procedure, shortened: as §1

[10] = 31 g ai/ha, 0 to 100 scale (0 no effect, 100 complete control)
[11] = 125 g ai/ha, scale 0 to 100 (0 no effect, 100 complete control)
[12] = 250 g ai/ha, scale 0 to 100 (0 no effect, 100 complete control), 13 to 15 days
[13] = 62 g ai/ha, scale 0 to 100 (0 no effect, 100 complete control)

SMILES: O=C1CCCC(O)=C1C(=O)c1cnc(-c2ccsc2)n(C2CCOCC2)c1=O [Compound 186]
- Plant response rating, Cocklebur [1, 10]: 90
- Plant response rating, Cocklebur [1, 11]: 100
- Plant response rating, Cocklebur [1, 12]: 100
- Plant response rating, Galium [2, 10]: 40
- Plant response rating, Galium [2, 11]: 70
- Plant response rating, Galium [2, 12]: 70
- Plant response rating, Kochia [3, 10]: 75
- Plant response rating, Kochia [3, 11]: 100
- Plant response rating, Kochia [3, 12]: 100
- Plant response rating, Lambsquarters [4, 10]: 98
- Plant response rating, Lambsquarters [4, 11]: 100
- Plant response rating, Lambsquarters [4, 12]: 100
- Plant response rating, Crabgrass, Large [5, 10]: 80
- Plant response rating, Crabgrass, Large [5, 11]: 85
- Plant response rating, Crabgrass, Large [5, 12]: 95
- Plant response rating, Oat, Wild [6, 10]: 0
- Plant response rating, Oat, Wild [6, 11]: 20
- Plant response rating, Oat, Wild [6, 12]: 45
- Plant response rating, Cupgrass, Woolly [7, 10]: 70
- Plant response rating, Cupgrass, Woolly [7, 11]: 80
- Plant response rating, Cupgrass, Woolly [7, 12]: 85
- Plant response rating, Nutsedge, Yellow [8, 10]: 65
- Plant response rating, Nutsedge, Yellow [8, 11]: 75
- Plant response rating, Nutsedge, Yellow [8, 12]: 80

SMILES: CCn1c(-c2cccc(F)c2)ncc(C(=O)C2=C(O)C3CCC(C3)C2=O)c1=O (stereo not drawn) [Compound 236]
- Plant response rating, Surinam Grass [9, 10]: 60
- Plant response rating, Surinam Grass [9, 13]: 70
- Plant response rating, Cocklebur [1, 11]: 100
- Plant response rating, Cocklebur [1, 12]: 100
- Plant response rating, Cocklebur [1, 13]: 100
- Plant response rating, Kochia [3, 10]: 80
- Plant response rating, Kochia [3, 11]: 100
- Plant response rating, Kochia [3, 12]: 100
- Plant response rating, Kochia [3, 13]: 98
- Plant response rating, Lambsquarters [4, 10]: 98
- Plant response rating, Lambsquarters [4, 11]: 100
- Plant response rating, Lambsquarters [4, 12]: 100
- Plant response rating, Lambsquarters [4, 13]: 100
- Plant response rating, Crabgrass, Large [5, 10]: 75
- Plant response rating, Crabgrass, Large [5, 11]: 98
- Plant response rating, Crabgrass, Large [5, 12]: 100
- Plant response rating, Crabgrass, Large [5, 13]: 90
- Plant response rating, Oat, Wild [6, 10]: 0
- Plant response rating, Oat, Wild [6, 12]: 60
- Plant response rating, Oat, Wild [6, 13]: 0
- Plant response rating, Cupgrass, Woolly [7, 10]: 70
- Plant response rating, Cupgrass, Woolly [7, 11]: 95
- Plant response rating, Cupgrass, Woolly [7, 13]: 85
- Plant response rating, Nutsedge, Yellow [8, 10]: 0
- Plant response rating, Nutsedge, Yellow [8, 11]: 15
- Plant response rating, Nutsedge, Yellow [8, 12]: 65
- Plant response rating, Nutsedge, Yellow [8, 13]: 15

Reference: patent US8952024B2, “Herbicidal pyrimidone derivatives” (E I du Pont de Nemours and Company, priority 2009, dated 2015)
